In PMC10226132, “First-in-Class Selective Inhibitors of the Lysine Acetyltransferase KAT8” (Journal of Medicinal Chemistry, 2023):
Where two headings read alike, the source gives them in different places.

Key:
Type in all cases: biochemical
[1] = target: T1, KAT3B (Homo sapiens, UniProt Q09472); assay: HotSpot KAT assay, KAT3B; conditions: read-out: IC50 KAT3B (1 nM); enzyme 1 nM; NI = no inhibition at 200 μM; mean ± SD of three independent experiments
T1 construct: KAT3B (aa 1284–1672, 1 nM); purchased Reaction Biology Corporation
T1 sequence (Q09472 1284-1672): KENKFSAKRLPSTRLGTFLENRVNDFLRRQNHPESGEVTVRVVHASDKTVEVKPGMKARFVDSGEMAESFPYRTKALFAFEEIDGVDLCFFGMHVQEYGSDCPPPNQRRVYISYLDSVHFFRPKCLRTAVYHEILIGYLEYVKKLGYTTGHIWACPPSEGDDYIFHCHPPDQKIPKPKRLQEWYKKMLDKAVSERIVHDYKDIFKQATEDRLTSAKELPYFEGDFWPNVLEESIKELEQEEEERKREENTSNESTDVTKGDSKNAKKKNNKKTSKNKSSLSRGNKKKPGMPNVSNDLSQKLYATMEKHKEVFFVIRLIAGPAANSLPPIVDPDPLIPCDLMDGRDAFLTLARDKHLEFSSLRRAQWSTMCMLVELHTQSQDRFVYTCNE
Protocol: The effects of the compounds on other KATs were determined using the HotSpot KAT assay (Reaction Biology Corporation, Malvern, PA, USA) according to the supplier’s procedure. […] Histone peptide acetylation was assessed by liquid scintillation counting using a Tri-Carb 2800TR Liquid Scintillation Analyzer (Perkin Elmer). Experiments were performed in biological triplicates. Signal reduction compared to control was plotted (as inhibition percentage) as a function of compound concentration. In cases in which an IC50 was calculated, the values were fitted by nonlinear regression (GraphPad Prism 8.0).

[2] = target: T2, KAT8 (Homo sapiens, UniProt Q9H7Z6); assay: Radioactive KAT8 inhibition assay
T2 construct: using the previously purified KAT8 (173–458, 5 nM); 6xHis tag with TEV protease cleavage site (N, cleaved yes); made in house; host or cells: E. coli BL21(DE3)
T2 sequence (Q9H7Z6 173-458): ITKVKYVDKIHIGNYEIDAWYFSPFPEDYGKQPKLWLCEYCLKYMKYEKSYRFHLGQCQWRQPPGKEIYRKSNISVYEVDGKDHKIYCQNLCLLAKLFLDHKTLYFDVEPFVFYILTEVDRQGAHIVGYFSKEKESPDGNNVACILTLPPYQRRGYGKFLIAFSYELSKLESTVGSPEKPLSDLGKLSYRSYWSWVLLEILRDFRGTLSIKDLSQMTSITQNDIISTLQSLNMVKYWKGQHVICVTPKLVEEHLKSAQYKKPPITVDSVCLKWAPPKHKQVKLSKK
Protocol: Purified KAT8 was incubated with the relevant inhibitor (1% DMSO final) in a 2-fold serial dilution starting at 200 μM for 20 min at rt. Then, [^3H]Ac-CoA and biotinylated peptide were added to a total assay volume of 50 μL and the reaction mixture was incubated at rt for 4 h. The reaction was stopped, and the mixture was transferred to a 96-well streptavidin scintillant coated FlashPlate (Perkin Elmer) and incubated for 60 min at rt. The FlashPlate was washed with 0.1% Tween-20, and the liquid scintillation counting (MicroBeta Microplate Counter, Perkin Elmer) was employed to measure the radioactive signal. Experiments were performed in biological triplicates. Signal reduction compared to control was plotted (as inhibition percentage) as a function of compound concentration and fitted by nonlinear regression (GraphPad Prism 8.0) finally yielding the IC50 values.

[3] = target: T3, KAT2B (Homo sapiens, UniProt Q92831); assay: HotSpot KAT assay, KAT2B; conditions: enzyme 25 nM; NI = no inhibition at 200 μM; mean ± SD of three independent experiments
T3 construct: KAT2B (aa 492–658, 25 nM); purchased Reaction Biology Corporation
Protocol: The effects of the compounds on other KATs were determined using the HotSpot KAT assay (Reaction Biology Corporation, Malvern, PA, USA) according to the supplier’s procedure. The recombinant catalytic domains of human KAT2A (aa 323–837, 15 nM), KAT2B (aa 492–658, 25 nM), KAT3B (aa 1284–1672, 1 nM), KAT6A (aa 488–778, 10 nM), KAT6B (aa 657–1069, 10 nM), and full length human KAT5 (25 nM) and KAT7 (25 nM) were used. Each enzyme was incubated with the relevant histone peptide [H3 peptide for KAT2A, KAT2B, KAT3B, KAT6A, and KAT7 (2.5–5 μM, depending on the KAT isoform); H2A peptide for KAT5 (1.25 μM); H4 peptide for KAT6B (2.5 μM)] as a substrate and radio-isotope-labeled [^3H]Acetyl-CoA (0.2–1.5 μM, depending on the KAT isoform) as an acetyl donor in the assay buffer [50 mM Tris–HCl (pH 8.0), 50 mM NaCl, 0.1 mM EDTA, 1 mM DTT, 0.1 mM PMSF, 1% DMSO] for 1 h at 30 °C in the presence or absence of various compounds (1% DMSO final) titrated in a 2-fold serial dilution starting at 200 μM. Histone peptide acetylation was assessed by liquid scintillation counting using a Tri-Carb 2800TR Liquid Scintillation Analyzer (Perkin Elmer). Experiments were performed in biological triplicates. Signal reduction compared to control was plotted (as inhibition percentage) as a function of compound concentration. In cases in which an IC50 was calculated, the values were fitted by nonlinear regression (GraphPad Prism 8.0).

[4] = read-out: IC50 KAT8 (5 nM), enzyme 5 nM, 2-fold serial dilution from 200 μM, NI = no inhibition at 200 μM, mean ± SD of three independent experiments

T3 sequence (Q92831 492-658): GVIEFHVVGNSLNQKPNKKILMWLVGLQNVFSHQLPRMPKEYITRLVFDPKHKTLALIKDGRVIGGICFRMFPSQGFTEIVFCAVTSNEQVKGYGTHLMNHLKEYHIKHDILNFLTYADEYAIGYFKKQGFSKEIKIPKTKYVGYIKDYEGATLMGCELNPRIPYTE

SMILES | IC50 [2, 4] [µM] | other results
CC1=NN(c2ccc(C(=O)O)cc2)C(=O)/C1=C\c1cc(C(=O)c2ccccc2C)c[nH]1 [Compound 13, (Z)-4-(3-Methyl-4-((4-(2-methylbenzoyl)-1H-pyrrol-2-yl)methylene)-5-oxo-4,5-dihydro-1H-pyrazol-1-yl)benzoic Acid] | 95 ± 10.2 | IC50 [1]: 8.9 ± 0.6 µM; IC50 [3]: > 200 µM
CC1=NN(c2ccccc2)C(=O)/C1=C\c1cc(C(=O)c2ccccc2[N+](=O)[O-])c[nH]1 [Compound 17, (Z)-5-Methyl-4-((4-(2-nitrobenzoyl)-1H-pyrrol-2-yl)methylene)-2-phenyl-2,4-dihydro-3H-pyrazol-3-one] | > 200 | 
CC1=NN(c2ccc(C(=O)O)cc2)C(=O)/C1=C\c1cc(C(=O)c2cccc([N+](=O)[O-])c2)c[nH]1 [Compound 3, (Z)-4-(3-Methyl-4-((4-(3-nitrobenzoyl)-1H-pyrrol-2-yl)methylene)-5-oxo-4,5-dihydro-1H-pyrazol-1-yl)benzoic Acid] | > 150 | 
CC1=NN(c2ccc(C(=O)O)cc2)C(=O)/C1=C\c1cc(C(=O)c2ccc([N+](=O)[O-])cc2)c[nH]1 [Compound 4, (Z)-4-(3-Methyl-4-((4-(4-nitrobenzoyl)-1H-pyrrol-2-yl)methylene)-5-oxo-4,5-dihydro-1H-pyrazol-1-yl)benzoic Acid] | > 200 | 
CC1=NN(c2ccc(C(=O)O)cc2)C(=O)/C1=C\c1cc(C(=O)c2ccccc2O)c[nH]1 [Compound 12, (Z)-4-(4-((4-(2-Hydroxybenzoyl)-1H-pyrrol-2-yl)methylene)-3-methyl-5-oxo-4,5-dihydro-1H-pyrazol-1-yl)benzoic Acid] | > 200 | 
CC1=NN(c2ccc(C(=O)O)cc2)C(=O)/C1=C\c1cc(C(=O)c2cccc(C)c2)c[nH]1 [Compound 14, (Z)-4-(3-Methyl-4-((4-(3-methylbenzoyl)-1H-pyrrol-2-yl)4ethylene)-5-oxo-4,5-dihydro-1H-pyrazol-1-yl)benzoic Acid] | > 200 | 
CC1=NN(c2ccc(C(=O)O)cc2)C(=O)/C1=C\c1cc(C(=O)c2cccc(F)c2)c[nH]1 [Compound 9, (Z)-4-(4-((4-(3-Fluorobenzoyl)-1H-pyrrol-2-yl)methylene)-3-methyl-5-oxo-4,5-dihydro-1H-pyrazol-1-yl)benzoic Acid] | > 200 | 
COc1cccc(C(=O)c2c[nH]c(/C=C3\C(=O)N(c4ccc(C(=O)O)cc4)N=C3C)c2)c1 [Compound 11, (Z)-4-(4-((4-(3-Methoxybenzoyl)-1H-pyrrol-2-yl)methylene)-3-methyl-5-oxo-4,5-dihydro-1H-pyrazol-1-yl)benzoic Acid] | > 200 | 
CC1=NN(c2ccc(C(=O)O)cc2)C(=O)/C1=C\c1cc(C(=O)c2ccc(Cl)cc2)c[nH]1 [Compound 7, (Z)-4-(4-((4-(4-Chlorobenzoyl)-1H-pyrrol-2-yl)methylene)-3-methyl-5-oxo-4,5-dihydro-1H-pyrazol-1-yl)benzoic Acid] | > 200 | 
CC(C)C1=NN(c2ccc(C(=O)O)cc2)C(=O)/C1=C\c1cc(C(=O)c2ccccc2[N+](=O)[O-])c[nH]1 [Compound 15, (Z)-4-(3-Isopropyl-4-((4-(2-nitrobenzoyl)-1H-pyrrol-2-yl)methylene)-5-oxo-4,5-dihydro-1H-pyrazol-1-yl)benzoic Acid] |  | IC50 [2]: > 150 µM; IC50 [3]: > 200 µM
COc1ccccc1C(=O)c1c[nH]c(/C=C2\C(=O)N(c3ccc(C(=O)O)cc3)N=C2C)c1 [Compound 10, (Z)-4-(4-((4-(2-Methoxybenzoyl)-1H-pyrrol-2-yl)methylene)-3-methyl-5-oxo-4,5-dihydro-1H-pyrazol-1-yl)benzoic Acid] |  | IC50 [2]: > 150 µM
CC1=NN(c2ccc(C(=O)O)cc2)C(=O)/C1=C\c1cc(C(=O)c2cccc(Cl)c2)c[nH]1 [Compound 6, (Z)-4-(4-((4-(3-Chlorobenzoyl)-1H-pyrrol-2-yl)methylene)-3-methyl-5-oxo-4,5-dihydro-1H-pyrazol-1-yl)benzoic Acid] | > 150 | 
CC1=NN(c2ccccc2)C(=O)/C1=C\c1cc(C(=O)c2ccccc2)c[nH]1 [Compound 16, (Z)-4-((4-Benzoyl-1H-pyrrol-2-yl)methylene)-5-methyl-2-phenyl-2,4-dihydro-3H-pyrazol-3-one] | > 200 | 
CC1=NN(c2ccc(C(=O)O)cc2)C(=O)C1 [Compound 18] | > 200 | 

The next lines start with results.

IC50 [2, 4] [µM] | SMILES | other results
20.1 ± 0.9 | CC1=NN(c2ccc(C(=O)O)cc2)C(=O)/C1=C\c1cc2ccccc2[nH]1 [Compound 26, (Z)-4-(4-((1H-Indol-2-yl)methylene)-3-methyl-5-oxo-4,5-dihydro-1H-pyrazol-1-yl)benzoic Acid] | IC50 [1]: 1.6 ± 0.08 µM; IC50 [3]: > 200 µM
13.9 ± 0.9 | CC(C)C1=NN(c2ccc(C(=O)O)cc2)C(=O)/C1=C\c1ccc[nH]1 [Compound 33, (Z)-4-(4-((1H-Pyrrol-2-yl)methylene)-3-isopropyl-5-oxo-4,5-dihydro-1H-pyrazol-1-yl)benzoic Acid] | IC50 [1]: > 200 µM; IC50 [3]: > 200 µM
54.7 ± 4 | CC1=NN(c2ccc(S(=O)(=O)O)cc2)C(=O)/C1=C\c1ccc[nH]1 [Compound 42, (Z)-4-(4-((1H-Pyrrol-2-yl)methylene)-3-methyl-5-oxo-4,5-dihydro-1H-pyrazol-1-yl)benzenesulfonic Acid] | 
> 150 | CC1=NN(c2ccc(C(=O)O)cc2)C(=O)/C1=C\c1cc(C(=O)c2ccccc2F)c[nH]1 [Compound 8, (Z)-4-(4-((4-(2-Fluorobenzoyl)-1H-pyrrol-2-yl)methylene)-3-methyl-5-oxo-4,5-dihydro-1H-pyrazol-1-yl)benzoic Acid] | 
52.2 ± 3.2 | CC1=NN(c2ccc(C(=O)NCCO)cc2)C(=O)/C1=C\c1ccc[nH]1 [Compound 40, (Z)-4-(4-((1H-Pyrrol-2-yl)methylene)-3-methyl-5-oxo-4,5-dihydro-1H-pyrazol-1-yl)-N-(2-hydroxyethyl)benzamide] | 
> 200 | CC1=NN(c2ccc(C(=O)NCCCN3CCCC3)cc2)C(=O)/C1=C\c1ccc[nH]1 [Compound 41, (Z)-4-(4-((1H-Pyrrol-2-yl)methylene)-3-methyl-5-oxo-4,5-dihydro-1H-pyrazol-1-yl)-N-(3-(pyrrolidin-1-yl)propyl)benzamide] | 
59.4 ± 3.7 | CC1=NN(c2ccc(S(N)(=O)=O)cc2)C(=O)/C1=C\c1ccc[nH]1 [Compound 43, (Z)-4-(4-((1H-Pyrrol-2-yl)methylene)-3-methyl-5-oxo-4,5-dihydro-1H-pyrazol-1-yl)benzenesulfonamide] | 
